Where two headings read alike, the source gives them in different places.
Tests used:
Type in all cases: cell-based, human
OVCAR3 = experiment: ATP luminescence proliferation assay, OVCAR3
Procedure: (§1) This example generally describes the procedures used to assay the antiproliferative activity of compounds of this invention or their conjugates. Human tumor cell lines were obtained from the American Type Culture Collection (ATCC), P.O. Box 1549, Manassas, Va. 20108, USA, and cultured according to instruction from the ATCC. Cells were seeded at 1.0×10^3 or 1.0×10^4 cells/well in 96-well plates for 3 h for ATP assays or ^3H thymidine assays, respectively. 1:3 serial dilutions of free (unconjugated) compounds or their conjugates were added to the wells. Plates were allowed to incubate for 24 to 72 h. The ^3H thymidine plates were pulsed with 1.0 μCi of ^3H-thymidine per well for the last 24 hours of the total incubation period, harvested, and read on a Top Count Scintillation Counter (Packard Instruments, Meriden, Conn.). ATP levels in the ATP plates were measured using the […]-GLO® Luminescent Cell Viability kit following the manufacturer's manual and read on a GLOMAX® 20/20 luminometer (both from Promega, Madison, Wis., USA). The EC50 values—the concentration at which an agent inhibits or reduces cell proliferation by 50% —were determined using PRISM™ software, version 4.0 (GraphPad Software, La Jolla, Calif., USA).
(§2) Using the ^3H thymidine or the ATP luminescence assay, or both, the activities of compounds of this invention were assayed against the following cancer cell lines: HCT-15 (colorectal cancer, multi-drug resistant (MDR)); Hep3B (liver cancer); LNCaP (prostate cancer, androgen receptor positive (AR^+)); MDA-MB-231 (breast cancer, estrogen receptor, progesterone receptor, and Her2 negative (triple negative)); A2058 (melanoma); U-87 MG (glioblastoma); NCI-H460 (NSCLC); A549 (NSCLC); HPAC (pancreatic cancer, primary); PC3 (prostate cancer, AR); BT474 (breast cancer, Her2 highly positive (Her2hi)); SKOV3 (ovarian cancer, Her2hi); 786-O (renal cancer); UO-31 (renal cancer, MDR); NCI-H740 (SCLC); DMS53 (SCLC); SK-BR3 (breast cancer, Her2hi); ZR-75 (breast cancer, estrogen receptor positive); OVCAR3 (ovarian cancer); HL-60 (APL); OVCAR8/Adr (ovarian cancer, MDR); CEM-Cl (ALL); Nomo-1 (AML); RPMI-8226 (MM)); Raji (lymphoma); SW-480 (colorectal cancer, metastatic); SW-620 (colorectal cancer); and H226 (lung cancer). (Not all compounds were assayed against all cell lines.)
(§3) Table 3 provides the data for the ATP luminescence proliferation assays, with an incubation period of 48, 72, or 96 h, as noted.

786-O = experiment: ATP luminescence proliferation assay, 786-O
Procedure: as §1, §2
(§4) FIGS. 12a and 12b show illustrative plots for ATP luminescence proliferation assays for a second set of compounds of this invention, against HL-60 and 786-O cells, respectively, with an incubation period of 72 h. FIGS. 12c and 12d show the plots for ^3H thymidine proliferation assays for the same set of compounds, again against HL-60 and 786-O cells, respectively, with a 72 h incubation period. In each instance, doxorubicin was used as a comparative compound.
as §3

HCT-15 = experiment: ATP luminescence proliferation assay, HCT-15; conditions: ATP luminescence, HCT-15, 72 h incubation; read-out: EC50 HCT-15 (72 h)
Procedure: as §1, §2, §3

HL-60 = experiment: ATP luminescence proliferation assay, HL-60
Procedure: as §1, §2, §4, §3

OVCAR8/Adr = experiment: ATP luminescence proliferation assay, OVCAR8/Adr; conditions: read-out: EC50 against the OVACAR8/Adr cell line
Procedure: as §1, §2, §3

H226 = experiment: ATP luminescence proliferation assay, H226; conditions: Homo sapiens, NCI-H226, 72 h incubation period, read-out: EC50 against the H226 cell line
Procedure: as §1, with “The EC50 values—the concentration at which an agent inhibits or reduces cell proliferation by 50% —were determined using PRISM™ software, version 4.0 (GraphPad Software, La Jolla, Calif., USA).” left out
as §2, with “(Not all compounds were assayed against all cell lines.)” left out

[1] = ATP luminescence, 786-O, 72 h incubation, read-out: EC50 786-O (72 h)

CC[C@H](C)[C@H](NC(=O)[C@H]1CCCCN1C)C(=O)N(C)[C@H](C[C@@H](OC(C)=O)c1nc(C(=O)N[C@@H](Cc2ccc(N)cc2)C[C@@H](C)C(=O)O)cs1)C(C)C [Compound 84b]
EC50 (OVCAR3; ATP luminescence, OVCAR3, 48 h incubation, read-out: EC50 OVCAR3 (48 h)): 4.91 nM
EC50 (786-O; ATP luminescence, 786-O, 48 h incubation, read-out: EC50 786-O (48 h)): 4.1 nM
EC50 (HCT-15): 22.8 nM
EC50 (HL-60; ATP luminescence, HL-60, 48 h incubation, read-out: EC50 HL-60 (48 h)): 16 to 27 nM
EC50 (OVCAR8/Adr; 48 h incubation period): 47.2 nM

CCCN(C(=O)[C@@H](NC(=O)[C@H]1CCCCN1C)[C@@H](C)CC)[C@H](C[C@@H](OC(C)=O)c1nc(C(=O)N[C@@H](Cc2ccccc2)C(=O)OC)cs1)C(C)C [Compound 109]
EC50 (OVCAR3; Homo sapiens, OVCAR-3, 72 h, read-out: EC50 OVCAR3 (72 h), ATP luminescence, OVCAR3, 72 h incubation): 0.202 nM
EC50 (786-O; Homo sapiens, 786-0, 48 h, read-out: EC50 786-O (48 h), ATP luminescence, 786-O, 48 h incubation): 1.03 nM
EC50 (HL-60; Homo sapiens, HL-60, 48 h, read-out: EC50 HL-60 (48 h), ATP luminescence, HL-60, 48 h incubation): 0.019 nM
EC50 (OVCAR8/Adr; Homo sapiens, OVCAR-8, 48 h incubation period): 24.9 nM
EC50 (H226): 1.61 nM

CCOC(=O)C(C)C[C@H](Cc1ccc(N)cc1)NC(=O)c1csc([C@@H](C[C@H](C(C)C)N(COC(=O)CC(C)C)C(=O)[C@@H](NC(=O)[C@H]2CCCCN2C)[C@@H](C)CC)OC)n1 (stereo partly shown) [Compound 133]
EC50 (786-O; [1]): 4.17 nM

CCOC(=O)C(C)C[C@H](Cc1ccc(N)cc1)NC(=O)c1csc([C@@H](C[C@H](C(C)C)N(COC)C(=O)[C@@H](NC(=O)[C@H]2CCCCN2C)[C@@H](C)CC)OC)n1 (stereo partly shown) [Compound 134]
EC50 (786-O; [1]): 9.89 nM

CCCOCN(C(=O)[C@@H](NC(=O)[C@H]1CCCCN1C)[C@@H](C)CC)[C@H](C[C@@H](OC)c1nc(C(=O)N[C@@H](Cc2ccc(N)cc2)CC(C)C(=O)OCC)cs1)C(C)C (stereo partly shown) [Compound 135]
EC50 (786-O; [1]): 12.9 nM
